# PMC7532674, “Synthesis and preliminary studies of ^11C-labeled tetrahydro-1,7-naphthyridine-2-carboxamides for PET imaging of metabotropic glutamate receptor 2” (Theranostics, 2020)
# Key:
# [1] = molecular target: T1, human mGlu2 (Homo sapiens, UniProt Q14416); test: Human mGlu2 GIRK thallium flux assay; format: cell-based; settings: HEK293 cells, EC80 glutamate, triplicate assays (14g duplicate)
# T1 construct: expressed in transfected cells
# Procedure: (§1) Cell Line Generation and Thallium Flux Assays. The general procedure for the preparation of human mGlu2 and mGlu3 was described previously, [56] with minor modifications in this work. The cloning sites were NheI/NotI for both receptors. HEK GIRK cells, generously provided by Lily Jan (University of California San Francisco, San Francisco, CA), were transfected with 24 μg of DNA using Fugene6 (Promega), stable transfectants were selected with 1 μg/mL puromycin dihydrochloride (Sigma-Aldrich, St. Louis, MO), and polyclonal human mGlu2 GIRK and mGlu3 GIRK cell lines were established. Cells were maintained following selection in 45% DMEM, 45% Ham's F12, 10% FBS, 100 units/mL penicillin/streptomycin, 20 mM HEPES, pH 7.3, 1 mM sodium pyruvate, 2 mM glutamine, 700 μg/mL G418 (Mediatech, Inc., Herndon, VA), and […] puromycin (growth media) at 37 °C in the presence of 5% CO2. All cell culture reagents were purchased from Invitrogen Corp. (Carlsbad, CA) unless otherwise noted.
# (§2) Human mGlu2 and mGlu3 Thallium Flux in Vitro Assays. Potencies of these NAMs at both mGlu2 and mGlu3 were investigated by thallium flux through GIRK channels, which was disclosed in detail as well as described in our previous work. In particular, cells were plated into 384-well, black-walled, clear-bottomed poly(D-lysine_-coated plates at a density of 15 000 cells per well in 20 μL of DMEM containing 10% dialyzed FBS, 20 mM HEPES, and 100 units/mL penicillin/streptomycin (assay media). Plated cells were incubated overnight at 37 °C in the presence of 5% CO2. The next day, the medium was exchanged from the cells to assay buffer [Hanks' balanced salt solution (Invitrogen) containing 20 mM HEPES, pH 7.3] using an ELX405 microplate washer (BioTek), leaving 20 μL per well, followed by the addition of 20 μL per well of FluoZin2-AM (330 nM final concentration) indicator dye (Invitrogen; prepared as a stock in DMSO and mixed in a 1:1 ratio with Pluronic acid F-127) in assay buffer. Cells were incubated for 1 h at room temperature, and the dye was exchanged to assay buffer using an ELX405, leaving 20 μL per well. For concentration-response curve experiments, compounds were serially diluted 1:3 into 10 point concentration-response curves and were transferred to daughter plates using an Echo acoustic plate reformatter (Labcyte, Sunnyvale, CA). Test compounds were diluted to 2 times their final desired concentration in assay buffer (0.3% DMSO final concentration). Agonists were diluted in thallium buffer [125 mM sodium bicarbonate (added fresh the morning of the experiment), 1 mM magnesium sulfate, 1.8 mM calcium sulfate, 5 mM glucose, 12 mM thallium sulfate, and 10 mM HEPES, pH 7.3] at 5 times the final concentration to be assayed. Cell plates and compound plates were loaded onto a kinetic imaging plate reader (FDSS 6000 or 7000; Hamamatsu Corporation, Bridgewater, NJ). Appropriate baseline readings were taken (10 images at 1 Hz; excitation, 470 ± 20 nm; emission, 540 ± 30 nm), and test compounds were added in a 20 μL volume and incubated for approximately 1 h at room temperature before the addition of 10 μL of thallium buffer with or without an EC80 concentration of the agonist glutamate for affinity evaluation experiments or with a full concentration-response of glutamate for Schild analysis experiments. After the addition of agonist, data were collected for approximately an additional 2.5 min. Data were analyzed using Excel (Microsoft Corp, Redmond, WA). The slope of the fluorescence increase beginning 5 s after thallium/agonist addition and ending 15 s after thallium/agonist addition was calculated, corrected to vehicle and maximal agonist control slope values, and plotted using either XLfit (ID Business Solutions Ltd.) or Prism software (GraphPad Software, San Diego, CA) to generate concentration-response curves. Potencies were calculated from fits using a four-point parameter logistic equation.
# [2] = molecular target: T2, human mGlu3 (Homo sapiens, UniProt Q14832); test: Human mGlu3 GIRK thallium flux assay; format: cell-based; settings: HEK293 cells, triplicate assays (14g duplicate)
# T2 construct: expressed in transfected cells
# Procedure: as §1, §2
# [3] = tested on: mGlu1, mGlu4, mGlu5, mGlu6 and mGlu8; test: Functional (agonist and antagonist) assays towards mGlu receptors; format: cell-based; settings: mGlu1, 4, 5, 6, 8
# [4] = molecular target: T3, hERG (Homo sapiens, UniProt Q12809); test: hERG safety assay; format: binding
# T3 construct: NIMH PDSP
# [5] = tested on: major CNS targets; test: CNS panel binding selectivity assays (NIMH PDSP)
# [6] = Radiometabolite analysis in plasma and brain; format: in vivo, Sprague-Dawley rats; settings: SD rats
# Procedure: Sprague-Dawley rats were sacrificed by decapitation under anesthesia at 5 and 20 min (n = 2 each time point) after the intravenous injection of [^11C]14b. Blood and whole brain samples were quickly harvested. Plasma was separated from the blood samples via 1) centrifuging at 15,000 g for 2 min at 4 °C, 2) mixing 0.5 mL of acetonitrile with 0.5 mL of supernatant, and then 3) vortexing for 15 s and centrifuging again at 15,000 g for 2 min for deproteinization. In terms of brain metabolite analysis, the removed rat brain was quickly placed on the ice, homogenized in an ice-cooled CH3CN/H2O (v/v, 1/1, 1 mL) solution, and then centrifuged at 15,000 g for 2 min at 4 °C. The supernatant was collected, whose radioactivity was >90% based on the total radioactivity in the brain homogenate. An aliquot of the supernatant (100 μL) obtained from the plasma or brain homogenate was injected into the radio-HPLC system and analyzed using a Capcell Pak UG80 C18 column (4.6 mm ID × 250 mm) in a mobile phase of CH3CN/H2O + 0.1% Et3N (v/v, 45/55) at a flow rate of 1.0 mL/min. The percentage of [^11C]14b to total radioactivity (corrected for decay) on the HPLC charts was calculated as ([peak area for [^11C]14b]/[total peak area]) × 100.
# [7] = Whole body ex vivo biodistribution in mice
# Procedure: Each mouse was treated with a bolus injection of [^11C]14b (50 μCi / 150 μL) via the tail vein. Three mice were sacrificed by cervical dislocation at each time point (1, 5, 15, 30 and 60 min) after injection. Major organs, including heart, lungs, liver, pancreas, spleen, kidneys, stomach (including contents), small intestine (including contents), large intestine (including contents), testes, muscle, whole brain and blood samples were quickly removed and weighed. The radioactivity remained in these organs was measured by a 2480 Wizard autogamma counter (PerkinElmer, USA). The results are expressed as the percentage of injected dose per gram of wet tissue (%ID/g) or standardized uptake value (SUV). All radioactivity measurements were decay-corrected to the time point of PET tracer injection based on half-life of ^11C.
# [8] = molecular target: T4, mGlu2 (Rattus norvegicus, UniProt P31421); test: In vitro autoradiography in rat brain sections; format: binding; set-up: from tissue; host or cells: Sprague-Dawley rat brain sections
# Procedure: Sagittal rat brain slices were prepared into 20 μm sections with a cryostat (HM560; Carl Zeiss, Oberkochen, Germany), mounted on air plasma spray-coated glass slides, and stored at -80 °C before used for experiments. The sections were preincubated for 15 min in a glass tank containing 200 mL of Tris·HCl buffer (50 mM, pH 7.4) consisting of 2 mM of MgCl2 and 1.2 mM of CaCl2 at room temperature. After preincubation, the sections were incubated in a fresh buffer containing [^11C]14a or [^11C]14b (250 µCi in 200 mL buffer; molar activity 2.7 Ci/µmol of [^11C]14a and 2.5 Ci/µmol of [^11C]14b, respectively) in the glass tank for 30 min at room temperature. For blocking studies, non-radioactive 14a or 14b (10 μM) and QCA (10 μM) were chosen to determine the specificity of radiotracers for binding mGlu2. Six serial brain sections were used for each conditions. After incubation, brain sections were washed with cold buffer (3 × 5 min), immersed in cold distilled water, and then dried with cold air. The sections were placed in contact with imaging plates (BAS-MS2025, FUJIFILM, Tokyo, Japan). Autoradiograms were obtained and photostimulated luminescence (PSL) values in the ROIs were measured using a Bio-Imaging Analyzer System (BAS5000, FUJIFILM).
# [9] = molecular target: T4, mGlu2; test: Dynamic PET imaging in rat brain; format: in vivo, SD rats; set-up: from tissue; host or cells: brain of living SD rats
# Procedure: As we previously reported, PET scans were carried out by an Inveon PET scanner (Siemens Medical Solutions, Knoxville, TN, USA). During the scan, SD rats were anesthetized by oxygen mixed with 1-2% (v/v) isoflurane and kept body temperature at […] by a commercially available circulation system (T/Pump TP401, Gaymar Industries, Orchard Park, NY). A 24-gauge catheter was inserted into the tail vein to facilitate a bolus injection. The radiotracer [^11C]14a or [^11C]14b (ca. 1 mCi / 150-200 μL) was injected into the rat via the preinstalled catheter, and the dynamic acquisition of PET signals in rat brain was started at the same time and lasted for 60 min in 3D list mode. For pretreatment studies, 14a (1 mg/kg for [^11C]14a for self-blocking study in Figure S2; 3 mg/kg for [^11C]14b for blocking study in Figure S12C) or 14b (1 mg/kg for [^11C]14b for self-blocking study in Figure S12B), formulated in 300 μL of saline containing 10% ethanol and 5% Tween 80, was injected at 30 min via the tail vein catheter prior to the injection of [^11C]14a or [^11C]14b. The dynamic emission data were reconstructed by filtered back projection using Hanning's filter with a Nyquist cutoff of 0.5 cycle/pixel into 33 frames (10 s × twelve frames, 20 s × three frames, 30 s × three frames, 60 s × three frames, 150 s × three frames, and 300 s × nine frames). The TACs of [^11C]14a or [^11C]14b were analyzed from volumes of interest in the striatum, hippocampus, cortex, thalamus, pons and cerebellum normalized to a rat brain MRI template using PMOD software (version 3.4; PMOD technology, Zurich, Switzerland). The radioactivity was decay-corrected to the injection time and expressed as the standardized uptake value (SUV) which equals to (radioactivity per milliliter of tissue per injected radioactivity) × (gram of body weight). To obtain non-displaceable binding potential (BPND), simplified reference tissue model (SRTM), [54] was carried out on the basis of kinetic analysis using PMOD software. We acquired BP-parametric images using kinetic modeling without masking. Respective TACs in receptor-rich or -poor region were loaded for production of BP-map with default setting. Representative parametric images scaled with BPND were reconstructed by PMOD software using TACs in mGlu2-enriched and reference regions. Pons was selected as the reference region for mGlu2 (the lowest and consistent brain uptake and washout kinetics between baseline and blocking conditions). It should be noted that while there is a low-level expression of mGlu2 in the pons, it is not without existence. A reference region should be a region devoid of the target, but with similar tracer transport or diffusion to the other regions of interest with expression of the target. Therefore, there are some limitations when using pons as the reference region. For example, the partial volume effect in PET likely leads to spillover of activity from nearby higher uptake regions into the pons, artificially increasing the time-activity curve in the pons.
# [10] = tested on: mGlu2; settings: cited from earlier work
# [11] = cited from earlier work
# [12] = SRTM, pons as reference, baseline
# T4 sequence (P31421 19-872): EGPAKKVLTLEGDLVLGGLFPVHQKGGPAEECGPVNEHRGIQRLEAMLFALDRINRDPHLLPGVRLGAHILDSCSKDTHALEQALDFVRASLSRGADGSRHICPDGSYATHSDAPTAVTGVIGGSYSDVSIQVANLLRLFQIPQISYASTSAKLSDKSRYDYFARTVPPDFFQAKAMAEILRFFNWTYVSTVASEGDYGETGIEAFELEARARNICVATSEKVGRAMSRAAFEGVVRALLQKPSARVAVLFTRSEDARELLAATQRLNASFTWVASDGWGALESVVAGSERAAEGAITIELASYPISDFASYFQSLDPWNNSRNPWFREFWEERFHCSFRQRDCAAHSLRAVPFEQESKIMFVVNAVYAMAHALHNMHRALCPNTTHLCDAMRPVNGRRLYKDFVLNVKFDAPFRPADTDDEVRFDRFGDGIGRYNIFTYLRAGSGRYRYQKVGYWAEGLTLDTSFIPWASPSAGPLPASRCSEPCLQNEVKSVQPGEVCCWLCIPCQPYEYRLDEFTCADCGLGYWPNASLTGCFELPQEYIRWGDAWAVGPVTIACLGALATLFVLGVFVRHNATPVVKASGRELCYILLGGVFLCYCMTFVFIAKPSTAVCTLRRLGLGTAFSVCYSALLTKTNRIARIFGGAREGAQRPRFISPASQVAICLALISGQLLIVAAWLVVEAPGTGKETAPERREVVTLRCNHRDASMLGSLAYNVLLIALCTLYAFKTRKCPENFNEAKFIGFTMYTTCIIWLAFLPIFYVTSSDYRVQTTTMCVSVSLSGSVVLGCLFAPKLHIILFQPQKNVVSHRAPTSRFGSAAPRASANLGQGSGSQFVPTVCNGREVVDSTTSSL
# T1 sequence (Q14416 19-872): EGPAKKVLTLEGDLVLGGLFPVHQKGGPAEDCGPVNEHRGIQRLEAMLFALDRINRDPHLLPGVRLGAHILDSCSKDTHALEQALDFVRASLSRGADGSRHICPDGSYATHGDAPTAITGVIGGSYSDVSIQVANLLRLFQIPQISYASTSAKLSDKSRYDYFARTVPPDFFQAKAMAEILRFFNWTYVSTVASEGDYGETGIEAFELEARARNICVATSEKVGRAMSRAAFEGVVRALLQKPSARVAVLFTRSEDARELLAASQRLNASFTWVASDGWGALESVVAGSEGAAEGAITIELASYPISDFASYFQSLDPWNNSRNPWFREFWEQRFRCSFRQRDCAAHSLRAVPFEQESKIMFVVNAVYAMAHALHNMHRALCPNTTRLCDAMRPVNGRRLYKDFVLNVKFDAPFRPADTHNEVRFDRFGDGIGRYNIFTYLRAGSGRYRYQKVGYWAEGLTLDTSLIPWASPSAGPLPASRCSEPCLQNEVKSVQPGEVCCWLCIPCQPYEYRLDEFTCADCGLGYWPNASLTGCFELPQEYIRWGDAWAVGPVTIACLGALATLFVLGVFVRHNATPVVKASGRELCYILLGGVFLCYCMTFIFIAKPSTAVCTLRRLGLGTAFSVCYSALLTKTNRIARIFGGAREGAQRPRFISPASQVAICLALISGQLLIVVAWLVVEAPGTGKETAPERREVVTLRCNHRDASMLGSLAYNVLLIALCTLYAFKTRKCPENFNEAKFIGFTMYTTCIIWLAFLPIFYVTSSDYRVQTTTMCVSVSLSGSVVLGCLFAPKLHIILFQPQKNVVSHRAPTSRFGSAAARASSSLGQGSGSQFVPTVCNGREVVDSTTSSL
# T2 sequence (Q14832 23-879): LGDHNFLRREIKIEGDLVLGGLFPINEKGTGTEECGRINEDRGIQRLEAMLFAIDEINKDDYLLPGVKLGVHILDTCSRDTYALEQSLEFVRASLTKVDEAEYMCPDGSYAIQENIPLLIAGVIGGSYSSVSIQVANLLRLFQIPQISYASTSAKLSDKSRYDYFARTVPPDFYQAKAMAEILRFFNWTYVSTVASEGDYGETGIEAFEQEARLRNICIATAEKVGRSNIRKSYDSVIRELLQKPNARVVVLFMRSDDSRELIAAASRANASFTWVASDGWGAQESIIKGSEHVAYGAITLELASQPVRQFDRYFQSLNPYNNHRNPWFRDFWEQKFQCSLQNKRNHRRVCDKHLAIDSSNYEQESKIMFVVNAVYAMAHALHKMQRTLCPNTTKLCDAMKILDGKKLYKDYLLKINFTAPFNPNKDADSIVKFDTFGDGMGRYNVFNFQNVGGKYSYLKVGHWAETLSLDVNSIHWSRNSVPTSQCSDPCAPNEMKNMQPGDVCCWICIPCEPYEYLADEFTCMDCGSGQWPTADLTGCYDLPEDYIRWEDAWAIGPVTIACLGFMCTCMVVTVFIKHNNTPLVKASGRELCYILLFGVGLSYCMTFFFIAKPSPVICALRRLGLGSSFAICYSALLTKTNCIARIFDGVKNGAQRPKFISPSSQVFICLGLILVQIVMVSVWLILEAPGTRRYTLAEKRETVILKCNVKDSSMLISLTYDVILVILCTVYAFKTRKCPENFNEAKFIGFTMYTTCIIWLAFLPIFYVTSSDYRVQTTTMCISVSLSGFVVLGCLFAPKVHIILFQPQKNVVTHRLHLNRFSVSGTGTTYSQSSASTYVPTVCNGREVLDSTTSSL
# T3 sequence (Q12809 whole entry): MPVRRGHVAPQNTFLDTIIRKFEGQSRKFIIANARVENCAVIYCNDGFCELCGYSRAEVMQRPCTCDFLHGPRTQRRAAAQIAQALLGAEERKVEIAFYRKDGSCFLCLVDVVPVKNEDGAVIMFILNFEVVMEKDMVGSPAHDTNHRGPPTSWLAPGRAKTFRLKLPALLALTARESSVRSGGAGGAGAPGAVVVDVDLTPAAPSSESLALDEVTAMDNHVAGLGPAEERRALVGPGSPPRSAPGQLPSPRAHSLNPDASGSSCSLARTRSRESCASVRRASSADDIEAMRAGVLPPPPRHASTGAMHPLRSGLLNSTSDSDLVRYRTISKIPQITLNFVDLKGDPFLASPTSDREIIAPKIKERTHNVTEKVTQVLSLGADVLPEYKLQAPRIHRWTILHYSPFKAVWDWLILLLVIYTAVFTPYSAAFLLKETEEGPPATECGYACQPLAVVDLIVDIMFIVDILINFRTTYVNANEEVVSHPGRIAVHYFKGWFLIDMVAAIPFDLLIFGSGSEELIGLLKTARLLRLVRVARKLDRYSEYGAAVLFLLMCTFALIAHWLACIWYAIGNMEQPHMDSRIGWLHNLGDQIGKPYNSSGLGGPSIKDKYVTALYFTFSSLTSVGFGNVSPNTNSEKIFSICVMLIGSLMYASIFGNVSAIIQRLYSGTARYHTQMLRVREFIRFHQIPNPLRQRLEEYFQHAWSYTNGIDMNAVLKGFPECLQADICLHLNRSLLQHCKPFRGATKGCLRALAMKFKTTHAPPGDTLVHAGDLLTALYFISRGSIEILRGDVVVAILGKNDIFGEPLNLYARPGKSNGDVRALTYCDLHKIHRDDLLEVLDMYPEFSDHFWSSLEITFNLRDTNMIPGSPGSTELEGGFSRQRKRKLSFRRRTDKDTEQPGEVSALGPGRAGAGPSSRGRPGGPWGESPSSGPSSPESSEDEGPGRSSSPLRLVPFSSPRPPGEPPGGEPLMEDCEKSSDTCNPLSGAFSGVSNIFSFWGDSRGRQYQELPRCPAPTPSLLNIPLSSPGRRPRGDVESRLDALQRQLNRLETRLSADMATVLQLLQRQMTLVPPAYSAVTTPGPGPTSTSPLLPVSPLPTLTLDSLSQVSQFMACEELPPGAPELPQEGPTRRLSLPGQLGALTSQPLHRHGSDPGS
structure (smiles),measurement,setting,value
"COc1cc(CN2CCc3c(-c4ccc(F)cc4F)cc(C(N)=O)nc3C2)ccn1 [14b, 4-(2,4-difluorophenyl)-7-((2-methoxypyridin-4-yl)methyl)-5,6,7,8-tetrahydro-1,7-naphthyridine-2-carboxamide]",IC50,[1],24 nM
same,IC50,[2],> 10 µM
same,Interaction with related mGlu receptor family,[3],no substantial interaction
same,Activity in hERG safety assay,[4],no activity
same,Off-target binding,"[5]; 10 μM compound, n = 4",No significant off-target binding (>50%)
same,Response with other major brain targets,"[5]; comprehensive CNS panel, NIMH PDSP",no significant response
"[11CH3]Oc1cc(CN2CCc3c(-c4ccc(F)cc4F)cc(C(N)=O)nc3C2)ccn1 [[^11C]14b, 4-(2,4-difluorophenyl)-7-((2-(methoxy-^11C)pyridine-4-yl)methyl)-5,6,7,8-tetrahydro-1,7-naphthyridine-2-carboxamide]",Unchanged fraction in plasma,[6]; 5 min post injection,77%
same,Unchanged fraction in brain,[6]; 20 min post injection,> 99%
same,Unchanged fraction in plasma,[6]; 20 min post injection,21%
same,Ratio of %ID/g(1min/60min) in blood,[7],> 3.5
same,Brain uptake,[7]; 5 min post injection,ca. 3.6 %ID/g
same,"Radioactivity in heart, lungs, liver, pancreas, kidneys and small intestine",[7]; within initial 1 min,> 4 %ID/g
same,Ratio of cerebellum to pons,"[8]; autoradiography, baseline",1.78
same,Ratio of cerebral cortex to pons,"[8]; autoradiography, baseline",2.61
same,Ratio of hippocampus to pons,"[8]; autoradiography, baseline",2.00
same,Ratio of striatum to pons,"[8]; autoradiography, baseline",2.79
same,Decrease of region-to-pons ratios under blocking,"[8]; preincubated with unlabeled QCA, 14b or 14a at 10 µM",45-69%
same,Time of peak radioactivity in brain regions,"[9]; SD rats, i.v.",≤ 3 min
same,BPND in cerebellum,[9]; [12],0.12
same,BPND in striatum and cingulate cortex,[9]; [12],0.72
same,Reduction of BPND,"[9]; pretreatment with 14a, 3 mg/kg i.v. 30 min before",48-90%
same,Reduction of BPND,"[9]; pretreatment with 14b, 1 mg/kg i.v. 30 min before",41-88%
"[11CH3]Oc1ccc(-c2cc(C(N)=O)nc3cc(CN4C(=O)CCC4=O)ccc23)c(F)c1 [[^11C]QCA, 7-((2,5-Dioxopyrrolidin-1-yl)methyl)-4-(2-fluoro-4-[^11C]methoxyphenyl) quinoline-2-carboxamide]",IC50,[10],45 nM
same,"Brain uptake, peak value",[11],~ 0.3 SUV
